# Laboratory results published in ChEMBL document CHEMBL1201862, “PubChem BioAssay data set” (2004).
# Calls of active or inactive are those of the source.
# Assays:
# [1] = molecular target: Protein-tyrosine kinase 2-beta (Homo sapiens, UniProt Q14289);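 also: potency of inhibitors of PYK2 kinase phosphorylation of poly-GT substrate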
# [2] = NIH-3T3 fibroblast cytotoxicity, dose response, cytotoxicity control, cell-based, fluorescence, Alamar Blue, secondary assay (AID 2327); format: functional;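 also: NIH-3T3 mouse fibroblasts cultured with fluconazole at 8 µg/mL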
# [3] = fluconazole-exposed Candida albicans growth modulators – fluorescence, retest, confirmation (AID 2467); format: functional, cell-based
# [4] = HIV-1 Vif–A3G interaction blockers – biochemical, TR-FRET, GST-Vif 1-94, biotin-A3G peptide, dose response retest, primary screen (AID 1117319); format: functional;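 also: TR-FRET signal of purified GST-Vif binding a biotinylated A3G peptide; inhibitors lower the FRET signal by blocking Vif and A3G binding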
# [5] = luciferase reporter signal suppression in cells – H4 neuroglioma cells, luminescence, dose response (AID 1990); format: functional, cell-based
# [6] = Luminescence Cell-Based Dose Response HTS to Identify Inhibitors of 5'UTR Stem-Loop Driven Prion Protein mRNA Translation in H4 Neuroglioblastoma Cells. [Related pubchem assays: 1827 (Project Summary), 1813 (Primary HTS)]; format: functional
# [7] = alpha-synuclein stem-loop luciferase translation blockers – H4 neuroglioma cells, luminescence, confirmation (AID 1988); format: functional, cell-based
# [8] = reduction of Shn3 3'UTR-driven luciferase in osteoblasts – cell-based, Clone20 osteoblasts, firefly luciferase, cherry-picked, dose response (AID 624132); format: functional;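 also: firefly luciferase luminescence from reporter carrying the Shn3 3'UTR in osteoblasts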
# [9] = loss of viability in HepG2 cells – cell-based, CellTiter-Glo, cherry-picked, cytotoxicity control for Shn3 inhibitor project, dose response (AID 624134); format: functional
# [10] = reduced cellular PGC1a acetyl-lysine signal – cell-based, cherry-picked samples, dose response (AID 720514); format: functional;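 also: potency may reflect raised or lowered acetylation signal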
# [11] = A Cell Based Secondary Assay To Explore Cytotoxicity of Compounds that Sensitize Mycobacterium Tuberculosis to Beta-Lactam Antibiotics.; format: functional
# Estrogen receptor = molecular target: T1, Estrogen receptor (Homo sapiens, UniProt P03372);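 also: potency for inhibiting coactivator peptide recruitment to the receptor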
# T1 sequence (P03372 whole entry): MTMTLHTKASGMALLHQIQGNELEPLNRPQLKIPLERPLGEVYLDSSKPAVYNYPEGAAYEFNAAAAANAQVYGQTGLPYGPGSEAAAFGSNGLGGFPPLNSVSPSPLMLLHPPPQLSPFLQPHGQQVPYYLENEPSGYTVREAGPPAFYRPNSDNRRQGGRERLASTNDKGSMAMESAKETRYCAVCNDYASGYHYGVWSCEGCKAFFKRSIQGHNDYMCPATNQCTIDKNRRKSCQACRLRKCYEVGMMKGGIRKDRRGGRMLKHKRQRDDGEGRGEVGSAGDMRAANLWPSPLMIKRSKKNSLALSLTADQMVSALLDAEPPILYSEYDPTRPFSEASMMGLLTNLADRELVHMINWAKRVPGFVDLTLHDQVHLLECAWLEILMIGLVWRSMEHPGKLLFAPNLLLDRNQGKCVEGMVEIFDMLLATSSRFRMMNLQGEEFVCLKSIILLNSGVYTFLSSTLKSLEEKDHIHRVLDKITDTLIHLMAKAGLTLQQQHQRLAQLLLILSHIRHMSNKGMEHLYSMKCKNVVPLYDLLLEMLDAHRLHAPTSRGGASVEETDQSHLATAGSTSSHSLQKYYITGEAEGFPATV
# Estrogen receptor beta [12] = molecular target: T2, Estrogen receptor beta (Homo sapiens, UniProt Q92731);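 also: recombinant ER-beta bound to coactivator SRC1 peptide in presence of estradiol agonist; inhibitors block coactivator peptide binding and lower the FRET signal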
# Estrogen receptor beta [13] = molecular target: T2, Estrogen receptor beta; experiment: blockers of SRC-3 recruitment to ERβ – biochemical, ELISA, streptavidin-HRP readout, orthogonal assay, confirmation (AID 1060)
# Cytochrome P450 2C9 = Cytochrome P450 2C9 (Homo sapiens, UniProt P11712); details: Potency
# [14] = molecular target: NAD-dependent protein deacylase sirtuin-5, mitochondrial (Homo sapiens, UniProt Q9NXA8); experiment: sirtuin-5 deacylation blockers, concentration series – biochemical, fluorescence imaging, cherry-pick, set 5, dose response (AID 720591);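 also: desuccinylation of succinyl peptide AMC substrate read as fluorescence after trypsin release; potency of inhibitors that lower fluorescence and may act on trypsin instead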
# [15] = molecular target: FAD-linked sulfhydryl oxidase ALR (Homo sapiens, UniProt P55789); experiment: ALR-catalysed DTT oxidation blockers – biochemical, H2O2 detection, luminescence, cherry-pick, dose response (AID 493248)
# [16] = molecular target: T3, Carboxy-terminal domain RNA polymerase II polypeptide A small phosphatase 1 (Homo sapiens, UniProt Q9GZU7); experiment: CTDSP1 inhibitors, concentration-response, biochemical, absorbance readout, ultra-high-throughput screen actives (AID 540297); format: functional
# T3 sequence (Q9GZU7 whole entry): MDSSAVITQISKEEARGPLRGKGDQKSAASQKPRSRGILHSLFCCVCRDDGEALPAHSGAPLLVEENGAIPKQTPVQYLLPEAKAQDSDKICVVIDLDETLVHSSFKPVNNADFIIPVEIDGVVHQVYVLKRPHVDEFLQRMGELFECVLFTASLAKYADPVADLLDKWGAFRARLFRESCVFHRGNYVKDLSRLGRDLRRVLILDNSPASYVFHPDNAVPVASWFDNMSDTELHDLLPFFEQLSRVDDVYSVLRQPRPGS
# Caspase-6 = molecular target: T4, Caspase-6 (Homo sapiens, UniProt P55212); experiment: inhibition of CASP6 peptide cleavage – biochemical, VEID-R110 fluorescence, cherry-pick, dose response (AID 720632)
# T4 sequence (P55212 whole entry): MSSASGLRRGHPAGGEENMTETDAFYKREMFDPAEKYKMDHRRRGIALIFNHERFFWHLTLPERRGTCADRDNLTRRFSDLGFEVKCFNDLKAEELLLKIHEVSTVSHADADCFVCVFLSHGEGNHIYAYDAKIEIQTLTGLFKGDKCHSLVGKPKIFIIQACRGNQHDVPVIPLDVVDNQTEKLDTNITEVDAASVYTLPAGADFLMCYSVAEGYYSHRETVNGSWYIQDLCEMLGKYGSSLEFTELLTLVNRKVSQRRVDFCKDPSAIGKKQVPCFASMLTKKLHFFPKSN
# [17] = molecular target: T5, Mannose-6-phosphate isomerase (Homo sapiens, UniProt P34949); experiment: MPI inhibition at elevated mannose 6-phosphate – biochemical, fluorescence intensity, high mannose 6-phosphate, primary screen (AID 1220)
# T5 sequence (P34949 whole entry): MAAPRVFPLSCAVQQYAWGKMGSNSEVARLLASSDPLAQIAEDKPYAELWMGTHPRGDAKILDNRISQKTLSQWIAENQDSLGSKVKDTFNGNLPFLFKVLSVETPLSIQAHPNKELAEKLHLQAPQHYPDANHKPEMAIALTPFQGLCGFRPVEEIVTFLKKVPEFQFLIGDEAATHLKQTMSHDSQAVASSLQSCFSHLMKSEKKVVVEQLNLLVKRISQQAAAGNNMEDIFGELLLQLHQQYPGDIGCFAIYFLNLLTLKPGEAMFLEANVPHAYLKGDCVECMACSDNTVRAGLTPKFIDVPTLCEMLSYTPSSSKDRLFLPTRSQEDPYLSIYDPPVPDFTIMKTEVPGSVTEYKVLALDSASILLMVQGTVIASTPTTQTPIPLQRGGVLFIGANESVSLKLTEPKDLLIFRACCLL
# [18] = molecular target: T6, RNA-binding protein pos-1 (Caenorhabditis elegans, UniProt G5EF15); experiment: disruptors of C. elegans POS-1 RNA interaction – biochemical, fluorescence polarization, dose response (AID 1964);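 also: purified POS-1 fused to maltose binding protein made in E. coli; potency of compounds blocking POS-1 binding to fluorescent RNA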
# T6 sequence (G5EF15 whole entry): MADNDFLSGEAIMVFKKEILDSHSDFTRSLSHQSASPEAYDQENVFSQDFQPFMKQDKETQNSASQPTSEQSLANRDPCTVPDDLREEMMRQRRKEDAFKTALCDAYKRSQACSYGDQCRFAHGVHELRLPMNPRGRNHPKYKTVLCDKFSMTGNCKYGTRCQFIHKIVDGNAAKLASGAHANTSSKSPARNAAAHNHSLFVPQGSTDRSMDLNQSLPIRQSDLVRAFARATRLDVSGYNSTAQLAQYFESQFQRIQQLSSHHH
# Nonstructural protein 1 = Nonstructural protein 1 (Influenza A virus, UniProt Q194T2); format: functional, Influenza A virus (A/California/07/2009(H1N1))
# Genome polyprotein = Genome polyprotein (dengue virus type 2, UniProt P29990); experiment: flavivirus cap methylation enzyme inhibition – biochemical, confirmation dose response, primary screen (AID 588689); format: functional
# [19] = Luminescence Cell-Based Dose Confirmation HTS to Identify Activators of 5'UTR Stem-Loop Driven Alpha-Synuclein mRNA Translation in H4 Neuroglioblastoma Cells. [Related pubchem assays: 1829 (Project Summary), 1814 (Primary HTS)]; format: functional
# [20] = Luminescence Cell-Based Dose Response HTS to Identify Activators of Luciferase Translation or Activity in H4 […] Cells. [Related pubchem assays: 1829 (Project Summary), 1814 (Primary HTS)]; format: functional
# H4 = experiment: Luminescence Cell-Based Dose Response HTS to Identify Activators of 5'UTR Stem-Loop Driven Prion Protein mRNA Translation in H4 Neuroglioblastoma Cells. [Related pubchem assays: 1829 (Project Summary), 1814 (Primary HTS)]; format: functional; details: Homo sapiens
# [21] = molecular target: Dual specificity tyrosine-phosphorylation-regulated kinase 1A (Rattus norvegicus, UniProt Q63470); format: biochemical, Homo sapiens
# [22] = molecular target: T7, Methionyl-tRNA synthetase, putative (Trypanosoma brucei brucei, UniProt Q38C91); format: functional, Trypanosoma brucei brucei strain 927/4 GUTat10.1
# T7 sequence (Q38C91 whole entry): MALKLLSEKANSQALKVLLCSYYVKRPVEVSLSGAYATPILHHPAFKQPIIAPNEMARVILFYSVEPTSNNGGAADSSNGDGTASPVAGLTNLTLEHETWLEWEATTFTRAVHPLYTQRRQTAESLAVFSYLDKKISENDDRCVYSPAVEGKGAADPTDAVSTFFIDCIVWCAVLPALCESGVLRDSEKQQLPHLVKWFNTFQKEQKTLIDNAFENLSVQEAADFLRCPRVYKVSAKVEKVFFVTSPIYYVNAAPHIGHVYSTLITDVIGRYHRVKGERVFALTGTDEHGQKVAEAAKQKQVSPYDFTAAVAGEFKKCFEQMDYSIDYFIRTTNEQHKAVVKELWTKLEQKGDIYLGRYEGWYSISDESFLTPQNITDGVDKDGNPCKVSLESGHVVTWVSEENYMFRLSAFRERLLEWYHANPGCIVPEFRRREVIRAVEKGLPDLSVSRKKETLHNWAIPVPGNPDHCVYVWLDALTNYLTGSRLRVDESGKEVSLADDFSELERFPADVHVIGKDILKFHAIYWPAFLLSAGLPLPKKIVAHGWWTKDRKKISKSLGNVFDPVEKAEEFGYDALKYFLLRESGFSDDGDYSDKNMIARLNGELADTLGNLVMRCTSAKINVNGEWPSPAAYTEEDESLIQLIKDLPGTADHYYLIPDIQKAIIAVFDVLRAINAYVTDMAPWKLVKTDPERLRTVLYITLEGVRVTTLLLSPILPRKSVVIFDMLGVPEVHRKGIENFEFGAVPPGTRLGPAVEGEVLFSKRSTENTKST
# [23] = Counterscreen for inhibitors of Trypanosoma brucei methionyl tRNA synthetase (MetRS): Luminescence-based cell-based high throughput dose response assay to identify compounds that are cytotoxic to Jurkat human T lymphocyte cells.; format: functional
# [24] = molecular target: T7, Methionyl-tRNA synthetase, putative; format: functional, Trypanosoma brucei brucei strain 927/4 GUTat10.1; remark: listed apart in the source
# Chain of NAD-dependent protein deacylase sirtuin-5, mitochondrial (Q9NXA8 whole entry): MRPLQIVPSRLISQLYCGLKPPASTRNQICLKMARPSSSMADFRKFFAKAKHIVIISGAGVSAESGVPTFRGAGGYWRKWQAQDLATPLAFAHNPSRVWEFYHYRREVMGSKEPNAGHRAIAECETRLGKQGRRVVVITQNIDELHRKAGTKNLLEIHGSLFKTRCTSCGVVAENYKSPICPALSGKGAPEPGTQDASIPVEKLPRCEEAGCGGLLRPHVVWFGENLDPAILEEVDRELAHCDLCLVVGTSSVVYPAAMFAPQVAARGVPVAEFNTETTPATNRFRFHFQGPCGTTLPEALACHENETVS
# Chain of Protein-tyrosine kinase 2-beta (Q14289 whole entry): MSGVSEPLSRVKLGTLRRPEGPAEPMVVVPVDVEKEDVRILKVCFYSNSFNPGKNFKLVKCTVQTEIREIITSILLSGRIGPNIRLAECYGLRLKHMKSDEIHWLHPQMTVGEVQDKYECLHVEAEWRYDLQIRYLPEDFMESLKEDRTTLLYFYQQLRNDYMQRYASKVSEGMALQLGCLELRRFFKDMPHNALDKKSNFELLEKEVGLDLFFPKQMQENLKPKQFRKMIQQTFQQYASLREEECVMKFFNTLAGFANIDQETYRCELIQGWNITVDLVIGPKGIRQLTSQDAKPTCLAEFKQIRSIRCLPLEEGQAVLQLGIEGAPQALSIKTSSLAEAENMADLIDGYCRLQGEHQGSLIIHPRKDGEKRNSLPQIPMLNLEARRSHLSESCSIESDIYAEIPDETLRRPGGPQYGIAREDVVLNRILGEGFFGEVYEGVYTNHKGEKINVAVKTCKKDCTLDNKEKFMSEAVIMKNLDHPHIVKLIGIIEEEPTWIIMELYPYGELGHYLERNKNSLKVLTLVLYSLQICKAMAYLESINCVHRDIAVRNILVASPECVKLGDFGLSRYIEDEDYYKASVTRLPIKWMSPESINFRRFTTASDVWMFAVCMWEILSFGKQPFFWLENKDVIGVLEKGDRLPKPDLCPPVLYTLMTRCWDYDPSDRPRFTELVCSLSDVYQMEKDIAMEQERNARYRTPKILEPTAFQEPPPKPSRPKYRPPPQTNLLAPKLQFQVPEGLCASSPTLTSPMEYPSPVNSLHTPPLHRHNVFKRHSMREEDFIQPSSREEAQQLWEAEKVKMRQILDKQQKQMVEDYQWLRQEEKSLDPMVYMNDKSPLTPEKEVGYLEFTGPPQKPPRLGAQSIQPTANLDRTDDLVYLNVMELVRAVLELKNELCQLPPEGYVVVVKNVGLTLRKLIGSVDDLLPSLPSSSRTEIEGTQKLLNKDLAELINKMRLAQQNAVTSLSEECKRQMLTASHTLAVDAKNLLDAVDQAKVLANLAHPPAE
# T2 sequence (Q92731 whole entry): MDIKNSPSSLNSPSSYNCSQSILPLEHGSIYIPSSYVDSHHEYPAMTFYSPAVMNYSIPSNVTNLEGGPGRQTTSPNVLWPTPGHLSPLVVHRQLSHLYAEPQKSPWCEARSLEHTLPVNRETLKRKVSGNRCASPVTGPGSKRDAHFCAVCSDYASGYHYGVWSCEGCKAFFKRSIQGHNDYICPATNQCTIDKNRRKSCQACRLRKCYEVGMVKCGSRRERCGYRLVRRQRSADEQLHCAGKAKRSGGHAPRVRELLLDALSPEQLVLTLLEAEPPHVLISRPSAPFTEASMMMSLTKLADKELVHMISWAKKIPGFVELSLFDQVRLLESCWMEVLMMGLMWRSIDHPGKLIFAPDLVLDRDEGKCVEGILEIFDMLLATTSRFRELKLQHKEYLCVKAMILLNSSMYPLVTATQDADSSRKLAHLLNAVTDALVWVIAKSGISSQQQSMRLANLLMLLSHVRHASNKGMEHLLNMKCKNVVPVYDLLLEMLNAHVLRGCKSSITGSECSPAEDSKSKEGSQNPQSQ
# Chain of Cytochrome P450 2C9 (P11712 whole entry): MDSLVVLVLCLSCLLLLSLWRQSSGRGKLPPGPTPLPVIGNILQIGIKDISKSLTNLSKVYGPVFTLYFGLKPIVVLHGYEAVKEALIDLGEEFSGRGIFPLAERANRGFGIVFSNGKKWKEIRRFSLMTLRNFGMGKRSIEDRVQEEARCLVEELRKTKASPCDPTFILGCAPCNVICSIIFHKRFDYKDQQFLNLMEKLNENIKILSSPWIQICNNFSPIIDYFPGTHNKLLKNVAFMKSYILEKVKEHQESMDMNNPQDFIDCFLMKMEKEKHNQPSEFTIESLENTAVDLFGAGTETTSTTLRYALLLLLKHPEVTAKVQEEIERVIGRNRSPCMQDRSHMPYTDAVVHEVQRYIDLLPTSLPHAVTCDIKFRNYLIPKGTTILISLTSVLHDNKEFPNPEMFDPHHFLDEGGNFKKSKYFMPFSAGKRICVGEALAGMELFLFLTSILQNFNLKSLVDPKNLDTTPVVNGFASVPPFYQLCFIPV
# Chain of FAD-linked sulfhydryl oxidase ALR (P55789 whole entry, the tested form may be a part): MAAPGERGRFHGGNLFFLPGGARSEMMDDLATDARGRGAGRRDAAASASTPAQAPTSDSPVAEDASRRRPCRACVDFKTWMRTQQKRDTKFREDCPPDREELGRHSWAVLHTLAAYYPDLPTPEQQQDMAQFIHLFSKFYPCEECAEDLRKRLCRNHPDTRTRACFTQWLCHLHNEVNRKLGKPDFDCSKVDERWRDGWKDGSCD
# Chain of Nonstructural protein 1 (Q194T2 whole entry): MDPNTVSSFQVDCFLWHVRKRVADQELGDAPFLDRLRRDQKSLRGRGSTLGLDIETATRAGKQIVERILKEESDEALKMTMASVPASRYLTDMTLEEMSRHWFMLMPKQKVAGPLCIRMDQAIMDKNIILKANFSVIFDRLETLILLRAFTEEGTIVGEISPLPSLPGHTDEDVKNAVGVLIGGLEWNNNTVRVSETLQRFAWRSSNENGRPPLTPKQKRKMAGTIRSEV
# Chain of Genome polyprotein (P29990 2492-3391 limits assumed): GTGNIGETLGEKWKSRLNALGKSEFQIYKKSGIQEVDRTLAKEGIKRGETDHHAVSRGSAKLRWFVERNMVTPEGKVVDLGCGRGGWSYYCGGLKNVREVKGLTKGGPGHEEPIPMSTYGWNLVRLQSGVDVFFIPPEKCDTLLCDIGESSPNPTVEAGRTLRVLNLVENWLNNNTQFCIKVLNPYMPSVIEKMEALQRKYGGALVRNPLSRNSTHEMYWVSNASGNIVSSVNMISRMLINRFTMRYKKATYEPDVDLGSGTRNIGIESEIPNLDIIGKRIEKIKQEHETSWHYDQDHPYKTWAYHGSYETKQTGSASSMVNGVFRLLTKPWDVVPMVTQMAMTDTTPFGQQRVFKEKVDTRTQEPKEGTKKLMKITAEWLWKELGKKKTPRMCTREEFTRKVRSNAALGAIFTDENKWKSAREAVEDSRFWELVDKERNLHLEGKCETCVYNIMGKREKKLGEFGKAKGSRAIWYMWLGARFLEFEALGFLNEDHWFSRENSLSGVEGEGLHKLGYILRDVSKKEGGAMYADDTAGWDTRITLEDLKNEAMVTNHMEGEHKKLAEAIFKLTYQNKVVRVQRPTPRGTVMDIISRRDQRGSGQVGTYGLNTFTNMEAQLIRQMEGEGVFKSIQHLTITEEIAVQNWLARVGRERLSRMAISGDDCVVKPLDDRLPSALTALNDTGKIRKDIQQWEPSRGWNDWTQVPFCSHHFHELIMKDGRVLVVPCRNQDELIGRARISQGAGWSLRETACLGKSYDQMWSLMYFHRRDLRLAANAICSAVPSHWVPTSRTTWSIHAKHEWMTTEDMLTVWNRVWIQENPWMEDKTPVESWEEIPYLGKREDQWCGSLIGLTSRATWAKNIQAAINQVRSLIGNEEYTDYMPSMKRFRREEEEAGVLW
compound,measurement,setting,value
COc1ccc(-c2ccc3c(N)c(C(=O)c4ccc(OC)c(OC)c4)sc3n2)cc1,IC50,[1],4.28 µM (active)
CC(=O)c1c(C)[nH]c(C(=O)Nc2ccc(C)c(C)c2)c1C,EC50,[2],72.3 µM (active)
same,EC50,[3],> 38 µM (not active)
same,IC50,[4],> 100 µM (active)
CC(C)CC(NC(=O)c1ccc(Cl)cc1)C(=O)OCC(=O)c1ccc2c(c1)NC(=O)CO2 (configuration not stated),EC50,[5],6.2 µM (active)
same,EC50,[6],2.69 µM (active)
same,EC50,[7],4.38 µM (active)
same,AC50,[8],4.01 µM (active)
same,AC50,[9],15.5 µM (active)
same,AC50,[10],6.45 µM (active)
Cc1cc(SCC(=O)c2ccccc2)n2ncc(-c3ccccc3)c2n1,CC50,[11],25.8 µM (active)
CCC(C)C(NC(N)=O)C(=O)Nc1ccc(OCc2ccccc2)cc1 (configuration not stated),CC50,[11],> 40 µM (active)
O=C(COC(=O)c1cccc(S(=O)(=O)N2CCc3ccccc3C2)c1)NCc1ccco1,IC50,Estrogen receptor,25 µM (active)
same,IC50,Estrogen receptor beta [12],> 50 µM (not active)
same,IC50,Estrogen receptor beta [13],0.0242 µM (not active)
CCN(CC)c1ccc(C(=O)n2cnc3ccccc32)cc1,CC50,[11],> 40 µM (active)
COc1ccc(-n2c(SCC#N)nnc2-c2cccnc2)cc1,AC50,[10],16.7 µM (active)
C=CCC1C=CC(Oc2ccc(F)cc2C)C(CO)O1 (configuration not stated),AC50,Cytochrome P450 2C9,3.98 µM (inconclusive)
COc1cc(/C=C(\C#N)c2nc3ccccc3[nH]2)c([N+](=O)[O-])cc1OCc1ccccc1,IC50,[4],> 100 µM (active)
CC(C)[C@@]1(NC(=O)[C@@H]2C=C3c4cccc5[nH]cc(c45)C[C@@H]3N(C)C2)O[C@]2(O)[C@H]3CCCN3C(=O)[C@H](Cc3ccccc3)N2C1=O,AC50,Cytochrome P450 2C9,10 µM (inconclusive)
COc1ccc(NS(=O)(=O)c2cccc(C(=O)N3CCCC(C)C3)c2)cc1 (configuration not stated),AC50,[14],28.4 µM (active)
CSc1ccc(NC(=O)Nc2ccc(C(=O)NCC(=O)O)cc2)cc1,AC50,[15],2.47 µM (active)
same,IC50,[16],3.17 µM (active)
same,AC50,Caspase-6,18.4 µM (active)
O=C(O)c1ccc(Nc2nc(-c3ccccc3)nc3ccccc23)cc1,AC50,[14],17.9 µM (active)
COc1ccc(CNc2cc(NCCCO)c([N+](=O)[O-])c3nonc23)cc1,IC50,[17],> 50 µM (not active)
Cc1cc(C)[n+]2ncn(C)c2n1,IC50,[17],> 50 µM (not active)
CC(C(=O)Nc1ccc(S(=O)(=O)N2CCOCC2)cc1)N1CCN(c2ccccn2)CC1 (configuration not stated),AC50,[14],> 30 µM (inactive)
C[C@H]1CN([C@@H](C)CO)S(=O)(=O)c2ccc(-c3ccccc3)cc2O[C@@H]1CN(C)Cc1cccc(F)c1,AC50,[10],7.93 µM (active)
Oc1ccc(/C=N/Nc2ccc(Cl)nn2)c(O)c1O,EC50,[18],50 µM (inconclusive)
same,IC50,Nonstructural protein 1,2.08 µM (active)
same,IC50,Genome polyprotein,16.4 µM (active)
same,AC50,Caspase-6,1.1 µM (active)
c1ccc2c3c([nH]c2c1)-c1n[nH]cc1CC3,EC50,[19],> 120 µM (not active)
same,EC50,[20],18.7 µM (active)
same,EC50,H4,> 120 µM (not active)
same,IC50,[1],10.5 µM (not active)
same,AC50,[21],3.79 µM (active)
same,IC50,[22],26.7 µM (inactive)
same,IC50,[23],83.4 µM (inactive)
same,IC50,[24],52.1 µM (inactive)
c1ccc(Nc2ccccn2)cc1,IC50,[4],> 100 µM (active)
